Experimental data from PMC7075946 (Frontiers in Immunology, 2020).
“Also recorded” adds a separate entry of the source.

Experiments:
[1] = test system: human PBMCs; assay: Human PBMC secreted cytokines (Luminex); type: cell-based; details: for pro-inflammatory and Th1/Th17 biasing cytokines, concentrations and frequencies: secreted and intracellular cytokine data
Procedure: Human blood was obtained from healthy adult donors through a University of Montana Institutional Review Board (IRB)-approved protocol. PBMCs were separated from whole blood via density gradient separation using Histopaque 1,077 (Sigma). For PBMC-based assays, cells were resuspended at the desired cell concentration in complete media (RPMI1640+10% FBS+antibiotics). Cells were treated with the indicated compound concentrations and stimulated for 6–24 h depending on the assay as indicated in the figure legends and assays outlined below.
For Luminex assays, supernatants were harvested from treated human PBMCs following 18–24 h of incubation. Supernatants were analyzed using Luminex multiplex panel for analytes IL-1β, IL-12p70, IL-23, IL-6, TNFα, IFNα, and IL-4 (R&D Systems) per the manufacturer's instructions. Multiplex analysis was performed using a Luminex 200 instrument (Luminex Corporation) and analyzed with StarStation2.3 software.
Figure 6 Lipidated imidazoquinolines elicit a Th1/Th17-inducing innate cytokine profile from human PBMCs. PBMCs from 6 healthy, adult blood donors were stimulated with indicated concentrations of TLR7/8 agonists with and without a TLR4 agonist. Secreted cytokines were measured after 24 h via Luminex assay. Supernanant concentrations of (A) IL-12p70, (B) IL-23, (C) IL-1β, and (D) IL-4 were determined. […] Note that for each cytokine measured, the y-axis scale used for the left and right plots is identical for ease of comparison.

[2] = target: T1, human TLR7 (Homo sapiens, UniProt Q9NYK1); assay: cell-based
T1 sequence (Q9NYK1 27-1049): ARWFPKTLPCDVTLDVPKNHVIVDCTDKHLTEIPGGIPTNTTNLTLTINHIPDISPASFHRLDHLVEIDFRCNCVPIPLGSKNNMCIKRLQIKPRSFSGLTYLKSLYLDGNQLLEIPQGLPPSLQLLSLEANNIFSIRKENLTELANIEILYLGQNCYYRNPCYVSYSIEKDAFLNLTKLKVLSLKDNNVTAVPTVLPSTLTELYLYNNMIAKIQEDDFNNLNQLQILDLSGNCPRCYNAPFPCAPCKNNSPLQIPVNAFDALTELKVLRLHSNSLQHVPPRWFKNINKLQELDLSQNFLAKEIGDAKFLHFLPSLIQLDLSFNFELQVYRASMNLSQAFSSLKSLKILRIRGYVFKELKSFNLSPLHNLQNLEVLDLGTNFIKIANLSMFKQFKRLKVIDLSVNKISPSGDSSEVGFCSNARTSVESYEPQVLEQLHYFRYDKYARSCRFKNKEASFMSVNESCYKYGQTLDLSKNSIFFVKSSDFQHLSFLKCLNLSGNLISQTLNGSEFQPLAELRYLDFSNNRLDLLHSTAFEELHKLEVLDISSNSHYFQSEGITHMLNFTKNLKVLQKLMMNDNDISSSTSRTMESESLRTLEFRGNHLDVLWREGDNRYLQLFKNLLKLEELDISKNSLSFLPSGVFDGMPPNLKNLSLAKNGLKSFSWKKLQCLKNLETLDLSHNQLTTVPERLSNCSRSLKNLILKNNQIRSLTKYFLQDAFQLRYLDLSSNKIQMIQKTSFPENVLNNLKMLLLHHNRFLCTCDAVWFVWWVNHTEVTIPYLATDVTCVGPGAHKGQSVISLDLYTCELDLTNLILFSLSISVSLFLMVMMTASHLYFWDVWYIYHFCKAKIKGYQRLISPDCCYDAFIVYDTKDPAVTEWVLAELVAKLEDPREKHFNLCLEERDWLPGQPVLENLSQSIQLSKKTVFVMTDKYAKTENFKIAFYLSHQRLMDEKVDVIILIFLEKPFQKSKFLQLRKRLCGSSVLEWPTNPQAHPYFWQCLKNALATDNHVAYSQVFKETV

[3] = target: T2, mouse TLR7 (Mus musculus, UniProt P58681); assay: cell-based
T2 sequence (P58681 27-1050): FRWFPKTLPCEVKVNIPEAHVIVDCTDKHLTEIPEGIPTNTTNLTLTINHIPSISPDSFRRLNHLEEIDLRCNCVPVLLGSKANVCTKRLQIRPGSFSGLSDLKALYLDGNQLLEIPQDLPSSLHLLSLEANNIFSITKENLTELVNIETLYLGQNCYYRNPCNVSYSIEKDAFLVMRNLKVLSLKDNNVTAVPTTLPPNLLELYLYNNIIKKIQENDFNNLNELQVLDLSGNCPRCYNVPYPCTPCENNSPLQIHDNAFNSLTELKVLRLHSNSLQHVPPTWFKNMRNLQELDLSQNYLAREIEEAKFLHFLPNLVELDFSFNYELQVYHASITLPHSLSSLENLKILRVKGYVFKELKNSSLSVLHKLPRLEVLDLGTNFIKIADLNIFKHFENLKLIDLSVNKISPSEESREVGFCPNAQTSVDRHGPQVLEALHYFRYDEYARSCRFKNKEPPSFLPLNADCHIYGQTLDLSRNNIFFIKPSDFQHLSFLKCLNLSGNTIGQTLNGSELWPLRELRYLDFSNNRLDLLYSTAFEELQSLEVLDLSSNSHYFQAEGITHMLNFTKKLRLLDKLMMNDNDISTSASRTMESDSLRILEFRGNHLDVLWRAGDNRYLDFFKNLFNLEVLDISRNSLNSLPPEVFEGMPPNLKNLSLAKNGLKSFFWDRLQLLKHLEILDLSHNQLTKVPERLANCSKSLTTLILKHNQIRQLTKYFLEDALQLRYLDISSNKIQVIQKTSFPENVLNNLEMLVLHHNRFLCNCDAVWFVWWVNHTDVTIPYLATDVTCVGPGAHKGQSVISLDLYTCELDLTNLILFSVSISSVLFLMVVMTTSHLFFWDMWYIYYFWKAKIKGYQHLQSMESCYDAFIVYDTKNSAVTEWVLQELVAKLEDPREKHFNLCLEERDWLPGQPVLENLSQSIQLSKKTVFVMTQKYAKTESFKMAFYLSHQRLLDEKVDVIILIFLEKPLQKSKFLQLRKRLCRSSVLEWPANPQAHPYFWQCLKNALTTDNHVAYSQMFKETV

CCCCCCCC/C=C\CCCCCCCC(=O)OC[C@H](COP(=O)(O)OCCc1ccc2c(c1)nc(N)c1nc(CCCC)n(CCO)c12)OC(=O)CCCCCCC/C=C\CCCCCCCC [UM-3005]
IFNα secretion ([1]; 24 h): secreted
pro-inflammatory and Th1/Th17 biasing cytokines, concentrations and frequencies [1]: highest concentrations and frequencies
EC50 [2]: 499 µM
EC50 [3]: 1.14 µM

CCCCCCCCCCCCCCCC(=O)OC[C@H](COCCOCCOCCOP(=O)(O)OCCn1c(CCCC)nc2c(N)nc3ccccc3c21)OC(=O)CCCCCCCCCCCCCCC [UM-3003]
IFNα secretion ([1]; 24 h): secreted; also recorded: most potent inducer of IFNα
IL-1β production ([1]; compound alone, 24 h): low concentrations
IL-12p70 production ([1]; compound alone, 24 h): low levels
IL-23 production ([1]; compound alone, 24 h): low concentrations
pro-inflammatory and Th1/Th17 biasing cytokines, concentrations and frequencies [1]: low concentrations and low frequencies
EC50 [2]: 34.7 µM
EC50 [3]: 12.6 µM

CCCCc1nc2c(N)nc3ccccc3c2n1CCO [UM-3001]
IFNα secretion ([1]; 24 h): not
IL-12p70 production ([1]; with CRX-601 added at a 1:10 ratio, 24 h): boosted IL-12p70 production
EC50 [2]: 1.12 µM
EC50 [3]: 0.48 µM

CCCCCCCCCCCCCCCC(=O)OC[C@H](COCCOCCOCCOCCOCCOCCOP(=O)(O)OCCn1c(CCCC)nc2c(N)nc3ccccc3c21)OC(=O)CCCCCCCCCCCCCCC [UM-3004]
IFNα secretion ([1]; 24 h): secreted
EC50 [2]: 60.5 µM
EC50 [3]: 0.86 µM
